The assay has as its target T1, CCR1 (Homo sapiens, UniProt P32246).
T1 sequence (P32246 1-355): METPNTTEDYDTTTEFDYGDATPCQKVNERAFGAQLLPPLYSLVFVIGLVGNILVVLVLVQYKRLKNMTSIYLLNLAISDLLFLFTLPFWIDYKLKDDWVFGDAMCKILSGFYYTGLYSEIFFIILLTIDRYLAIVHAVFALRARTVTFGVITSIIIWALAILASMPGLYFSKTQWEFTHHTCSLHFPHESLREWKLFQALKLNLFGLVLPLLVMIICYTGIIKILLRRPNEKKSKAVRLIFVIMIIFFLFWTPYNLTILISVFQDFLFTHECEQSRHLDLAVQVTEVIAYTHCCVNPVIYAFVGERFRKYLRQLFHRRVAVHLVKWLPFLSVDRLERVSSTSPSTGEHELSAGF
The experiment in a line: Method B: calcium flux in CCR1 transfected cells (Calcium 4 dye, […] FDSS6000), block of the CCR1/MIP-1α interaction. It counts as cell-based. To be noted: Method B: Calcium 4 dye, MIP-1alpha at EC80. The essentials:
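Calcium flux on an FDSS6000 was triggered by MIP-1α at its EC80 in stably CCR1/G-alpha-16-expressing non-adherent cells. Before this, Calcium 4-loaded cells were preincubated with compound in HBSS, 20 mM HEPES pH 7.4, 1% DMSO: 30 min at 37 C plus 30 min at room temperature. Ten 4-fold doses began at 3,000 nM, with ±MIP-1α DMSO wells as controls.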

`CC[C@H](NC(=O)c1cncc2c1cnn2-c1ccc(F)cc1)c1cc(S(C)(=O)=O)ccn1` [1-(4-Fluorophenyl)-1H-pyrazolo[3,4-c]pyridine-4-carboxylic acid [(S)-1-(4-methanesulfonyl-pyridin-2-yl)-propyl]-amide]: the IC50 is 0.8 nM.
As for `CS(=O)(=O)c1cc([C@H](CC(O)CO)NC(=O)c2cncc3c2cnn3-c2ccc(F)cc2)ccn1` (single isomer, unassigned), the half-maximal inhibitory concentration (IC50) stood at 11 nM.
As for `CC[C@H](NC(=O)c1cncc2c1cnn2-c1ccc(F)cc1)c1ccc(S(=O)(=O)CC)nc1` [1-(4-Fluorophenyl)-1H-pyrazolo[3,4-c]pyridine-4-carboxylic acid [(S)-1-(6-ethanesulfonyl-pyridin-3-yl)-propyl]-amide], the IC50 was found to be 0.3 nM.
With `CC[C@@H](NC(=O)c1cncc2c1cnn2-c1ccc(F)cc1)c1ccc(OC)c(Br)c1` [1-(4-Fluorophenyl)-1H-pyrazolo[3,4-c]pyridine-4-carboxylic acid [(R)-1-(3-bromo-4-methoxy-phenyl)-propyl]-amide], the concentration for half-maximal inhibition (IC50) came out at 0.2 nM.
As for `CC[C@H](NC(=O)c1cncc2c1cnn2-c1ccc(F)cc1)c1ccc(S(C)(=O)=O)c(O)c1` [1-(4-Fluorophenyl)-1H-pyrazolo[3,4-c]pyridine-4-carboxylic acid [(S)-1-(3-hydroxy-4-methanesulfonyl-phenyl)-propyl]-amide], the IC50 stood at 0.6 nM.
With `C[C@H](NC(=O)c1cncc2c1cnn2-c1ccc(F)cc1)c1nc(Br)cs1` [1-(4-Fluorophenyl)-1H-pyrazolo[3,4-c]pyridine-4-carboxylic acid [(S)-1-(4-bromo-thiazol-2-yl)-ethyl]-amide] the figure was 24 nM.
`C[C@H](NC(=O)c1cncc2c1cnn2-c1ccc(F)cc1)c1cnc(S(C)(=O)=O)o1` [1-(4-Fluorophenyl)-1H-pyrazolo[3,4-c]pyridine-4-carboxylic acid [(S)-1-(2-methanesulfonyl-oxazol-5-yl)-ethyl]-amide]: the 50% inhibitory concentration (IC50) is 19 nM.
On to `CC[C@H](NC(=O)c1cncc2c1cnn2-c1ccc(F)cc1)c1ccnc(C)c1` [1-(4-Fluorophenyl)-1H-pyrazolo[3,4-c]pyridine-4-carboxylic acid [(S)-1-(2-methyl-pyridin-4-yl)-propyl]-amide], for which the IC50 was found to be 0.9 nM.
Then `CCC(NC(=O)c1cncc2c1cnn2-c1ccc(F)cc1)c1nc(C(N)=O)c(C)o1` (stereo not shown) [1-(4-Fluorophenyl)-1H-pyrazolo[3,4-c]pyridine-4-carboxylic acid [1-(4-carbamoyl-5-methyl-oxazol-2-yl)-propyl]-amide], with 26 nM; and `CC[C@H](NC(=O)c1cncc2c1cnn2-c1ccc(F)cc1)c1ccc(Br)c(OC)c1` [1-(4-Fluorophenyl)-1H-pyrazolo[3,4-c]pyridine-4-carboxylic acid [(S)-1-(4-bromo-3-methoxy-phenyl)-propyl]-amide], with 0.5 nM.
`CC[C@H](NC(=O)c1cncc2c1cnn2-c1ccc(F)cc1)c1ccnc(C(=O)O)c1` [4-((S)-1-{[1-(4-Fluorophenyl)-1H-pyrazolo[3,4-c]pyridine-4-carbonyl]-amino}-propyl)-pyridine-2-carboxylic acid]: the IC50 was 12 nM.
Consider `CC[C@H](NC(=O)c1cncc2c1cnn2-c1ccc(F)cc1)c1ccc(OC)c(S(C)(=O)=O)c1` [1-(4-Fluorophenyl)-1H-pyrazolo[3,4-c]pyridine-4-carboxylic acid [(S)-1-(3-methanesulfonyl-4-methoxy-phenyl)-propyl]-amide], for which the IC50 came to 6 nM.
Then `CC[C@H](NC(=O)c1cncc2c1cnn2-c1ccc(F)cc1)c1cccc(S(N)(=O)=O)n1` [1-(4-Fluorophenyl)-1H-pyrazolo[3,4-c]pyridine-4-carboxylic acid [(S)-1-(6-sulfamoyl-pyridin-2-yl)-propyl]-amide], with 0.3 nM; and `CC[C@H](NC(=O)c1cncc2c1cnn2-c1ccc(F)cc1)c1ccnc(N(C)CCO)c1` [1-(4-Fluorophenyl)-1H-pyrazolo[3,4-c]pyridine-4-carboxylic acid ((S)-1-{2-[(2-hydroxy-ethyl)-methyl-amino]-pyridin-4-yl}-propyl)-amide], with 2 nM; and `CC[C@H](NC(=O)c1cncc2c1cnn2-c1ccc(F)cc1)c1cc(NC(C)C)nc(S(C)(=O)=O)c1` [1-(4-Fluorophenyl)-1H-pyrazolo[3,4-c]pyridine-4-carboxylic acid [(S)-1-(2-isopropylamino-6-methanesulfonyl-pyridin-4-yl)-propyl]-amide], with 0.2 nM.
As to `O=C(NCc1cnc(N2CCOCC2)nc1)c1cncc2c1cnn2-c1ccc(F)cc1` [1-(4-Fluorophenyl)-1H-pyrazolo[3,4-c]pyridine-4-carboxylic acid (2-morpholin-4-yl-pyrimidin-5-ylmethyl)-amide], the 50% inhibitory concentration (IC50) worked out at 8 nM.
`C[C@H](NC(=O)c1cncc2c1cnn2-c1ccc(F)cc1)c1cccc(S(C)(=O)=O)c1` [1-(4-Fluorophenyl)-1H-pyrazolo[3,4-c]pyridine-4-carboxylic acid [(S)-1-(3-methanesulfonyl-phenyl)-ethyl]-amide]: the half-maximal inhibitory concentration (IC50) came to 1 nM.
Consider `CC[C@H](NC(=O)c1cncc2c1cnn2-c1ccc(F)cc1)c1ccnc(N2CCN(C(C)=O)CC2)c1` [1-(4-Fluorophenyl)-1H-pyrazolo[3,4-c]pyridine-4-carboxylic acid {(S)-1-[2-(4-acetyl-piperazin-1-yl)-pyridin-4-yl]-propyl}-amide], for which the 50% inhibitory concentration (IC50) is 5 nM.
With `CC[C@H](NC(=O)c1cncc2c1cnn2-c1ccc(F)cc1)c1ccc(S(C)(=O)=O)o1` [1-(4-Fluorophenyl)-1H-pyrazolo[3,4-c]pyridine-4-carboxylic acid [(S)-1-(5-methanesulfonyl-furan-2-yl)-propyl]-amide] the figure was 0.4 nM.
Regarding `CS(=O)(=O)n1ccc2c(CNC(=O)c3cncc4c3cnn4-c3ccc(F)cc3)ccnc21` [1-(4-Fluorophenyl)-1H-pyrazolo[3,4-c]pyridine-4-carboxylic acid (1-methanesulfonyl-1H-pyrrolo[2,3-b]pyridin-4-ylmethyl)-amide], the IC50 turned out to be 3 nM.
With `O=C(NCc1cnc(Br)s1)c1cncc2c1cnn2-c1ccc(F)cc1` [1-(4-Fluorophenyl)-1H-pyrazolo[3,4-c]pyridine-4-carboxylic acid (2-bromo-thiazol-5-ylmethyl)-amide], the IC50 worked out at 25 nM.
Consider `CC[C@H](NC(=O)c1cncc2c1cnn2-c1ccc(F)cc1)c1ccc(OC)c(Br)c1` [1-(4-Fluorophenyl)-1H-pyrazolo[3,4-c]pyridine-4-carboxylic acid [(S)-1-(3-bromo-4-methoxy-phenyl)-propyl]-amide], for which the IC50 was found to be 7 nM.
As for `C[C@H](NC(=O)c1cncc2c1cnn2-c1ccc(F)cc1)c1cc(N(C)C)nc(S(C)(=O)=O)c1` [1-(4-Fluorophenyl)-1H-pyrazolo[3,4-c]pyridine-4-carboxylic acid [(S)-1-(2-dimethylamino-6-methanesulfonyl-pyridin-4-yl)-ethyl]-amide], the IC50 turned out to be 0.2 nM.
Consider `CC[C@H](NC(=O)c1cncc2c1cnn2-c1ccc(F)cc1)c1nc(C(=O)OC)cs1` [2-((S)-1-{[1-(4-Fluorophenyl)-1H-pyrazolo[3,4-c]pyridine-4-carbonyl]-amino}-propyl)-thiazole-4-carboxylic acid methyl ester], for which the half-inhibitory concentration (IC50) was 5 nM.
Turning to `CNc1cc([C@H](C)NC(=O)c2cncc3c2cnn3-c2ccc(F)cc2)cc(S(C)(=O)=O)n1` [1-(4-Fluorophenyl)-1H-pyrazolo[3,4-c]pyridine-4-carboxylic acid [(S)-1-(2-methanesulfonyl-6-methylamino-pyridin-4-yl)-ethyl]-amide], the IC50 amounted to 0.4 nM.
As to `CC[C@H](NC(=O)c1cncc2c1cnn2-c1ccc(F)cc1)c1csc(S(C)(=O)=O)c1` [1-(4-Fluorophenyl)-1H-pyrazolo[3,4-c]pyridine-4-carboxylic acid [(S)-1-(5-methanesulfonyl-thiophen-3-yl)-propyl]-amide], the half-inhibitory concentration (IC50) was determined as 0.3 nM.
As to `CC[C@H](NC(=O)c1cncc2c1cnn2-c1ccc(F)cc1)c1cnn(C)c1` [1-(4-Fluorophenyl)-1H-pyrazolo[3,4-c]pyridine-4-carboxylic acid [(S)-1-(1-methyl-1H-pyrazol-4-yl)-propyl]-amide], the IC50 is 11 nM.
Turning to `CCC[C@@H](NC(=O)c1cncc2c1cnn2-c1ccc(F)cc1)c1ccc(OC)c(Br)c1` [1-(4-Fluorophenyl)-1H-pyrazolo[3,4-c]pyridine-4-carboxylic acid [(R)-1-(3-bromo-4-methoxy-phenyl)-butyl]-amide], the IC50 was determined as 0.3 nM.
Consider `CS(=O)(=O)c1ccc(CNC(=O)c2cncc3c2cnn3-c2ccc(F)cc2)s1` [1-(4-Fluorophenyl)-1H-pyrazolo[3,4-c]pyridine-4-carboxylic acid (5-methanesulfonyl-thiophen-2-ylmethyl)-amide], for which the IC50 stood at 5 nM.
Regarding `CC[C@H](NC(=O)c1cncc2c1cnn2-c1ccc(F)cc1)c1cccc(Br)n1` [1-(4-Fluorophenyl)-1H-pyrazolo[3,4-c]pyridine-4-carboxylic acid [(S)-1-(6-bromopyridin-2-yl)-propyl]-amide], the half-maximal inhibitory concentration (IC50) turned out to be 0.2 nM.
Then `CC[C@H](NC(=O)c1cncc2c1cnn2-c1ccc(F)cc1)c1ccnc([S@+](C)[O-])c1` [1-(4-Fluorophenyl)-1H-pyrazolo[3,4-c]pyridine-4-carboxylic acid {(S)-1-[2-((S)-methanesulfinyl)-pyridin-4-yl]-propyl}-amide], with 0.5 nM.

For orientation: IC50 means the midpoint of a concentration-inhibition curve.

The record behind these values is patent publication US8063065B2, “Azaindazole compounds as CCR1 receptor antagonists” (Boehringer Ingelheim International GmbH, priority 2008, dated 2011).
